Data set [1] can be described thus: Solubility of β-lapachone in common solvent systems used for intravenous delivery. The data set is classed as physicochemical. An excerpt: β-lapachone, as well as its derivatives and analogs thereof (also referred to herein as the “active compounds”), are described in Li, C. J. et al., J. Biol. Chem., 1993. These active compounds can be incorporated into pharmaceutical compositions suitable for parenteral administration. Such compositions typically comprise the active compound and a pharmaceutically acceptable carrier, excipient, diluent or adjuvant. However, the low solubility of β-lapachone in most pharmaceutically acceptable solvents has been an obstacle to the development of a suitable formulation for parenteral and topical administration, particularly intravenous and cutaneous administration, respectively. Table 1 illustrates the limited solubility of β-lapachone in common solvent systems used for intravenous delivery of drugs. […] To achieve this plasma concentration, an intravenous formulation must have a β-lapachone concentration approaching 10 mg/ml and be able to be diluted 5–×10× with sterile fluids for intravenous administration, such as saline or D5W.
Various pharmaceutically acceptable solvent systems known to solubilize hydrophobic drug substances were evaluated with β-lapachone. […] However, none of these systems could be diluted 5× with sterile saline without significant precipitation of the β-lapachone from solution. In addition, most of these co-solvents and surfactants have their own toxicity and tolerability issues that need to be managed during high dose drug administration.

In data set [2] the test system is six human cancer cells lines. Briefly: MTS growth inhibition assay, summary over all lines. The class given is cell-based. Conditions: all six tumor cell lines; tested up to 20 μM. How it is done:
A2780 and A2780/CP (ovarian); MCF-7 (breast); HT-29 (colon); BxPC-3 (pancreas); and A549 (lung). The human tumor cell lines (purchased from ATCC, Rockville, Md.) were cultured at 37° C. (5% CO2) in RPMI medium (RPMI; Nova Tech, Grand Island, N.Y.) containing 10% fetal bovine serum (FBS, Nova Tech). Aliquots of cells were seeded into each well of 96-well microtiter plates at a final concentration of 10^4 cells/well and incubated for 24 h prior to exposure to test compounds. […] The MTS assay is a colorimetric assay based upon the ability of viable cells to convert MTS, a novel tetrazolium compound and electron-coupling reagent, to a colored formazan product that is soluble in cell culture medium. The cell concentration is then determined by measuring the absorbance of the formazan product at 490 nm. Growth inhibition, expressed as IC50, is calculated relative to vehicle-treated control cells.

The subject of another data set is A2780DDP. How it is done: In testing β-lapachone against the cisplatin-resistant-cell lines, cells were exposed to β-lapachone solutions for 4 h. The cells were then rinsed and fresh medium was added. Cultures were observed daily for 10–20 days and then were fixed and stained. Colonies of greater than 30 cells were scored as survivors.
Data set [3] concerns the target T1, human DNA Topoisomerases I (Homo sapiens, UniProt P11387).
T1 sequence (P11387 1-765): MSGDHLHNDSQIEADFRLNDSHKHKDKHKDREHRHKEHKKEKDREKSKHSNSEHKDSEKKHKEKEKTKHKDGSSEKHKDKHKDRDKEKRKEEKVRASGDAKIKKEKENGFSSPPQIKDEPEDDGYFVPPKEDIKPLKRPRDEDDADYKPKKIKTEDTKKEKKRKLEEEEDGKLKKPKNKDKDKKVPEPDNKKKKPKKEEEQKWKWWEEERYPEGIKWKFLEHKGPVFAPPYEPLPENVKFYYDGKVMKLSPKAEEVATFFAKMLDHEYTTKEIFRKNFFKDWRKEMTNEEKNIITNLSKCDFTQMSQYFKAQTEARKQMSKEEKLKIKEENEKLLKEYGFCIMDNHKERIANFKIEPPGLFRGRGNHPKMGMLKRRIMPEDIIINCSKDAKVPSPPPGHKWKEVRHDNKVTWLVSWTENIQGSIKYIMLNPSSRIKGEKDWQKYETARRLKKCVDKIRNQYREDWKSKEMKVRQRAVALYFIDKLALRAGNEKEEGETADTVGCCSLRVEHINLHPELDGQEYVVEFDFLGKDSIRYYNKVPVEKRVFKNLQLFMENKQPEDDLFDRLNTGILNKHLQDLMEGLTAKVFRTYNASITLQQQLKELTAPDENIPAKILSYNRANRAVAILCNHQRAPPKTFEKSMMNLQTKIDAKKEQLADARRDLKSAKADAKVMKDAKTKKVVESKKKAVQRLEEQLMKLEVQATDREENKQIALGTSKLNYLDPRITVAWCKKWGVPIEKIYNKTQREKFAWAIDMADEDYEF
To be noted: cited from earlier work.

In the next data set the test system is human PBMC. Conditions: cited from earlier work.

What is called solubility is the concentration that dissolves in the medium under given conditions.

Molecules are shown by their SMILES. Values after ≈ are worked out from the molar mass of the structure shown. Like-named read-outs stand apart in the source and are kept apart here.

Regarding `CC1(C)CCC2=C(O1)c1ccccc1C(=O)C2=O` [β-lapachone], the solubility in data set [1] (EtOH 76% diluted 5X in 0.9% saline, aqueous with cosolvent or surfactant or cyclodextrin, EtOH 76%, diluted in 0.9% saline, read-out: β-lapachone Solubility, 5X dilution) amounted to 102 µg/mL (≈ 0.423 mM); in data set [1] (EtOH 76%, organic solvent or mixture, read-out: β-lapachone Solubility, Undiluted), 10700 µg/mL (≈ 44 mM); in data set [1] (PEG 400, organic solvent or mixture, read-out: β-lapachone Solubility, Undiluted) it was 11700 µg/mL (≈ 48.2 mM); in data set [1] (PEG 400 diluted 5X in 0.9% saline, aqueous with cosolvent or surfactant or cyclodextrin, PEG 400, diluted in 0.9% saline, read-out: β-lapachone Solubility, 5X dilution), 140 µg/mL (≈ 0.578 mM); in data set [1] (Poloxamer 20% diluted 5X in 0.9% saline, aqueous with cosolvent or surfactant or cyclodextrin, Poloxamer 20%, diluted in 0.9% saline, read-out: β-lapachone Solubility, 5X dilution), 33.1 µg/mL (≈ 0.137 mM); in data set [1] (Poloxamer 20%, aqueous with cosolvent or surfactant or cyclodextrin, read-out: β-lapachone Solubility, Undiluted), 2040 µg/mL (≈ 8.4 mM). In addition, the solubility worked out at 31.3 µg/mL (≈ 0.129 mM) in data set [1] (Povidone K12 20% diluted 5X in 0.9% saline, aqueous with cosolvent or surfactant or cyclodextrin, Povidone K12 20%, diluted in 0.9% saline, read-out: β-lapachone Solubility, 5X dilution); 1860 µg/mL (≈ 7.68 mM) in data set [1] (Povidone K12 20%, aqueous with cosolvent or surfactant or cyclodextrin, read-out: β-lapachone Solubility, Undiluted); 31.2 µg/mL (≈ 0.129 mM) in data set [1] (Povidone K17 20% diluted 5X in 0.9% saline, aqueous with cosolvent or surfactant or cyclodextrin, Povidone K17 20%, diluted in 0.9% saline, read-out: β-lapachone Solubility, 5X dilution); 1820 µg/mL (≈ 7.53 mM) in data set [1] (Povidone K17 20%, aqueous with cosolvent or surfactant or cyclodextrin, read-out: β-lapachone Solubility, Undiluted); 95 µg/mL (≈ 0.392 mM) in data set [1] (Propylene Glycol diluted 5X in 0.9% saline, aqueous with cosolvent or surfactant or cyclodextrin, Propylene Glycol, diluted in 0.9% saline, read-out: β-lapachone Solubility, 5X dilution); 8780 µg/mL (≈ 36.2 mM) in data set [1] (Propylene Glycol, organic solvent or mixture, read-out: β-lapachone Solubility, Undiluted). In addition, the solubility in data set [1] (Trappsol 20% diluted 5X in 0.9% saline, aqueous with cosolvent or surfactant or cyclodextrin, Trappsol 20%, diluted in 0.9% saline, read-out: β-lapachone Solubility, 5X dilution) is 30 µg/mL (≈ 0.124 mM); in data set [1] (Trappsol 20%, aqueous with cosolvent or surfactant or cyclodextrin, read-out: β-lapachone Solubility, Undiluted), 1460 µg/mL (≈ 6.05 mM); in data set [1] (Tween 80, aqueous with cosolvent or surfactant or cyclodextrin, read-out: β-lapachone Solubility, Undiluted), 11200 µg/mL (≈ 46.1 mM); in data set [1] (Tween 80 diluted 5X in 0.9% saline, aqueous with cosolvent or surfactant or cyclodextrin, Tween 80, diluted in 0.9% saline, read-out: β-lapachone Solubility, 5X dilution) it was 1660 µg/mL (≈ 6.83 mM); in data set [1] (organic solvent or mixture, highest of all solvent systems, undiluted, read-out: maximum solubility in the solvents listed in Table 1), ~12000 µg/mL (≈ 49.5 mM). Besides, the “growth inhibitory activity, verbal summary” value in data set [2] was “dose-dependent inhibitory effect”. Also, the “cytotoxicity as single agent, resistant versus parent line” value with A2780DDP is “equally cytotoxic”. Also, the in vitro inhibition entry in data set [3] is “potent in vitro inhibition”. Also, the “cytotoxic effects on normal cells” value in the data set with human PBMC is on record as “No cytotoxic effects were observed”.
